Test results reported in the supplement of paper PMC11208160.

Test: recombinant UMI read abundance after kanamycin selection (control-corrected) (log10(CPM+1)); higher = more efficient recombination; extreme values may be limits of the assay; sequences stand for … in AGTGCAGAGAAAATCGGCCAGTTTTCTCTGCCTGCAGTCCGCATGCCGTGGGACCCCTTGGGTTCTAACCTGTTGCCTAGATTTATGCAGCGGACTGCCTTTCTCCCAAAGTGATAAACCGG…AGGTTGGTTTCACT; site = the 11-nt donor
Procedure, shortened: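 Two replicates each of selected and unselected plating were used in this pooled Escherichia coli screen of donor and donor-binding-loop pairs for the IS621 bridge recombinase. Selection was with IPTG (0.07 mM) and kanamycin. Counts of recombinant UMIs, amplified across the donor–target junction, were converted to CPM, averaged, scaled by control-derived factors and reported as log10(CPM+1).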
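Note: IS621 bridge recombinase in Escherichia coli cells against a fixed T5 target plasmid.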

| Sequence | recombinant UMI read abundance (log10) |
| --- | --- |
| ATTGTTGCATGGACCGGTTTTCCCGGTAATCCGTATTTGAC (site ATTGTTGCTGT) | 2.18 |
| CATTACCCATGGACCGGTTTTCCCGGTAATCCGTATTTGCC (site CATTACCCTGG) | 0 |
| CTATTATCATGGACCGGTTTTCCCGGTAATCCGTATTTGAT (site CTAGTATCTGT) | 0 |
| AGGACTACATGGACCGGTTTTCCCGGTAATCCGTATTTGAT (site AGGACTACTAT) | 1.77 |
| CCCGGTCCATGGACCGGTTTTCCCGGTAATCCGTATTTGCA (site CCCGGTCCTTT) | 0.0121 |
| CCCTTCTCATGGACCGGTTTTCCCGGTAATCCGTATTTGCG (site CCCTTCTCTCG) | 1.08 |
| CTAACTGCATGGACCGGTTTTCCCGGTAATCCGTATTTGTC (site CTAACTGCTGA) | 2.12 |
| CTCTACACATGGACCGGTTTTCCCGGTAATCCGTATTTGCT (site CTCTAAACTAG) | 0 |
| GAAAATTCATGGACCGGTTTTCCCGGTAATCCGTATTTGTT (site GAACATTCTAA) | 0 |
| ACACTTCCATGGACCGGTTTTCCCGGTAATCCGTATTTGAC (site ACACATCCTGT) | 1.66 |
| CTCGGTCCATGGACCGGTTTTCCCGGTAATCCGTATTTGCA (site CACGGTCCTTG) | 0.779 |
| AGGAAGACATGGACCGGTTTTCCCGGTAATCCGTATTTGCA (site AGGAAAACTTA) | 0 |
| GGCCACCCATGGACCGGTTTTCCCGGTAATCCGTATTTGTT (site GGCCATCCTAA) | 0.0127 |
| CCGAATACATGGACCGGTTTTCCCGGTAATCCGTATTTGGC (site CCCAATACTGC) | 0 |
| ACTAGTGCATGGACCGGTTTTCCCGGTAATCCGTATTTGGT (site ACTAGTGCTGC) | 0 |
| AGGAAGACATGGACCGGTTTTCCCGGTAATCCGTATTTGCA (site AGGTAGACTGG) | 0 |
| TCGAGTCCATGGACCGGTTTTCCCGGTAATCCGTATTTGAA (site TCGAGTCCTTT) | 0.307 |
| GCTATTGCATGGACCGGTTTTCCCGGTAATCCGTATTTGCC (site GCTAATGCTGG) | 0 |
| CGGGAGCCATGGACCGGTTTTCCCGGTAATCCGTATTTGAT (site CGGGAGCCTAT) | 0.266 |
| CTTGTACCATGGACCGGTTTTCCCGGTAATCCGTATTTGAC (site CTTGTACCTGT) | 0 |
| CTTCCGGCATGGACCGGTTTTCCCGGTAATCCGTATTTGAT (site CTTCCGGCTAT) | 1.14 |
| CGGTCATCATGGACCGGTTTTCCCGGTAATCCGTATTTGCT (site CGGTCATCTAG) | 1.7 |
| AAGCTCGCATGGACCGGTTTTCCCGGTAATCCGTATTTGGG (site AAGCCCGCTCC) | 0.0313 |
| GTTAGAACATGGACCGGTTTTCCCGGTAATCCGTATTTGTC (site GTTAGAACTGG) | 0 |
| ACCAATTCATGGACCGGTTTTCCCGGTAATCCGTATTTGCC (site CCCAATTCTGG) | 1.91 |

| Sequence | recombinant UMI read abundance (log10) |
| --- | --- |
| GTATCGTCATGGACCGGTTTTCCCGGTAATCCGTATTTGTC (site GTATCGTCTGA) | 3.21 |
| CGCCGTACATGGACCGGTTTTCCCGGTAATCCGTATTTGCG (site CGCCGTACTCG) | 1.13 |
| GCGATACCATGGACCGGTTTTCCCGGTAATCCGTATTTGAT (site GCGATACCTAT) | 0 |
| ACATCGACATGGACCGGTTTTCCCGGTAATCCGTATTTGTG (site ACATCCACTCA) | 0.0171 |
| ATTCAAGCATGGACCGGTTTTCCCGGTAATCCGTATTTGAG (site ATGCAAGCTCT) | 0.501 |
| CCCGGTCCATGGACCGGTTTTCCCGGTAATCCGTATTTGCA (site CCCGTTCCTTG) | 0 |
| AGGACTACATGGACCGGTTTTCCCGGTAATCCGTATTTGAT (site AGGACTACTTT) | 0.00536 |
| CGTGAAACATGGACCGGTTTTCCCGGTAATCCGTATTTGTT (site CGTGAAACTAA) | 1.61 |
| CTAGTATCATGGACCGGTTTTCCCGGTAATCCGTATTTGGC (site CTAGTATCTGA) | 2.25 |
| GGAGGCGCATGGACCGGTTTTCCCGGTAATCCGTATTTGCC (site GGAGGCGCTGG) | 3.44 |
| TAGCAGACATGGACCGGTTTTCCCGGTAATCCGTATTTGGT (site TAGCAGACTAC) | 0.868 |
| GGGGCACCATGGACCGGTTTTCCCGGTAATCCGTATTTGAA (site GGGGCACCTTC) | 0.018 |
| GTCCCGTCATGGACCGGTTTTCCCGGTAATCCGTATTTGGT (site GTCCCGTCTAC) | 0.849 |
| CGCAATCCATGGACCGGTTTTCCCGGTAATCCGTATTTGAA (site CGCAATCCTTT) | 1.27 |
| TCTTAACCATGGACCGGTTTTCCCGGTAATCCGTATTTGTG (site TCTTAACCTCA) | 0.0128 |
| GAGTATCCATGGACCGGTTTTCCCGGTAATCCGTATTTGCT (site GATTATCCTAG) | 0 |
| CAAGTCTCATGGACCGGTTTTCCCGGTAATCCGTATTTGAC (site CAAGTCTCTGT) | 3.08 |
| CCAAAGACATGGACCGGTTTTCCCGGTAATCCGTATTTGCA (site CCAAAGACTTG) | 2.26 |
| TCCTAGACATGGACCGGTTTTCCCGGTAATCCGTATTTGGG (site CCCTAGACTCC) | 0.0212 |
| GCGAATACATGGACCGGTTTTCCCGGTAATCCGTATTTGCT (site GCGAAAACTAG) | 0 |
| AGAAAAGCATGGACCGGTTTTCCCGGTAATCCGTATTTGCT (site AGAAAGGCTAG) | 1.38 |
| CAGTCTACATGGACCGGTTTTCCCGGTAATCCGTATTTGGG (site CAGTCTACTCC) | 0.0109 |
| GAGAAGCCATGGACCGGTTTTCCCGGTAATCCGTATTTGTC (site GAGAAGCCTGA) | 0 |
| TTGGCAACATGGACCGGTTTTCCCGGTAATCCGTATTTGCT (site TTGGCAACTAG) | 0.0704 |
| AAGCAAGCATGGACCGGTTTTCCCGGTAATCCGTATTTGGG (site AAGCACGCTCC) | 0.0526 |

| Sequence | recombinant UMI read abundance (log10) |
| --- | --- |
| GTTTGCCCATGGACCGGTTTTCCCGGTAATCCGTATTTGAT (site GTTTGCCCTAT) | 0.0181 |
| CAGTCGACATGGACCGGTTTTCCCGGTAATCCGTATTTGGG (site CAGTAGACTCC) | 0.34 |
| AGGAAGACATGGACCGGTTTTCCCGGTAATCCGTATTTGCA (site AGGAAGTCTTG) | 1.05 |
| ACACGAGCATGGACCGGTTTTCCCGGTAATCCGTATTTGTC (site ACACGACCTGA) | 0 |
| TGCACATCATGGACCGGTTTTCCCGGTAATCCGTATTTGCC (site TGCACATCTGG) | 0.35 |
| GTAACTCCATGGACCGGTTTTCCCGGTAATCCGTATTTGTC (site GTAACTCCTGA) | 1.71 |
| CGAGCGCCATGGACCGGTTTTCCCGGTAATCCGTATTTGTG (site CAAGCGCCTCA) | 0.0595 |
| CGTTTCGCATGGACCGGTTTTCCCGGTAATCCGTATTTGCT (site CGTTTTGCTAG) | 0 |
| GTAGTCACATGGACCGGTTTTCCCGGTAATCCGTATTTGCG (site GTAGTCACTCG) | 2.1 |
| AGGAAGACATGGACCGGTTTTCCCGGTAATCCGTATTTGCA (site AGGAATACTTG) | 1.12 |
| CGATGATCATGGACCGGTTTTCCCGGTAATCCGTATTTGAT (site CGATGATCTAT) | 2.44 |
| TCATACTCATGGACCGGTTTTCCCGGTAATCCGTATTTGGA (site TCATACTCTTG) | 0 |
| GGCCCCGCATGGACCGGTTTTCCCGGTAATCCGTATTTGAT (site GGCCCCGCTAT) | 1.24 |
| CCCTTATCATGGACCGGTTTTCCCGGTAATCCGTATTTGCA (site CCCTTATCTTG) | 2.15 |
| TGGACTACATGGACCGGTTTTCCCGGTAATCCGTATTTGAC (site AGGACTACTGT) | 0 |
| GTAGGTACATGGACCGGTTTTCCCGGTAATCCGTATTTGAG (site GTAGGTACTTT) | 0.806 |
| CGAGGACCATGGACCGGTTTTCCCGGTAATCCGTATTTGGG (site CGGGGACCTCC) | 0 |
| CGATCATCATGGACCGGTTTTCCCGGTAATCCGTATTTGGG (site CGATCATCTCC) | 0.00655 |
| GCGAAAACATGGACCGGTTTTCCCGGTAATCCGTATTTGCT (site GGGAAAACTAG) | 0 |
| GACAAACCATGGACCGGTTTTCCCGGTAATCCGTATTTGGG (site GACAAACCTCC) | 0 |
| CGATCGACATGGACCGGTTTTCCCGGTAATCCGTATTTGTT (site CTATCGACTAA) | 0.0176 |
| AACTATTCATGGACCGGTTTTCCCGGTAATCCGTATTTGCG (site AACTATTCTCG) | 2.02 |
| AATTATTCATGGACCGGTTTTCCCGGTAATCCGTATTTGGA (site AATTATGCTTC) | 0.0186 |
| CTTTTGGCATGGACCGGTTTTCCCGGTAATCCGTATTTGCT (site CATTTGGCTAG) | 0 |
| CGATGACCATGGACCGGTTTTCCCGGTAATCCGTATTTGGG (site CGATGACCTCC) | 0.0111 |
